Assays:
recombinant NL4-3 virus = assay: HIV cell culture assay (antiviral activity, luciferase readout in MT-2 cells); assay type: cell-based; conditions: Human immunodeficiency virus 1, NL43, MT2
Procedure, shortened: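 MT-2 cells infected for 4-5 days with NL4-3 reference virus carrying Renilla luciferase in place of part of nef, in presence of serial compound dilutions. Luciferase activity read with live-cell substrate. EC50 derived from median effect equation, slope parameter m.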

[1] = Compound cytotoxicity, XTT-based colorimetric assay; assay type: cell-based; conditions: human; uninfected MT2 cells, day 4, XTT; read-out: CC50
Procedure, shortened: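 Run under the antiviral-assay protocol but without virus. Viability was read on day 4 and CC50 values were derived from the readout.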

Cn1nc(NS(C)(=O)=O)c2c(Cl)ccc(-n3c([C@H](Cc4cc(F)cc(F)c4)NC(=O)Cn4nc(C(F)F)c5c4C(F)(F)[C@@H]4C[C@H]54)nc4cc(N5CCC(C)(C)CC5)ccc4c3=O)c21 (atropisomer, axis not shown; (P)) [Example 1, N—((S)-1-((3P)-3-(4-chloro-1-methyl-3-(methylsulfonamido)-1H-indazol-7-yl)-7-(4,4-dimethylpiperidin-1-yl)-4-oxo-3,4-dihydroquinazolin-2-yl)-2-(3,5-difluorophenyl)ethyl)-2-((3bS,4aR)-3-(difluoromethyl)-5,5-difluoro-3b,4,4a,5-tetrahydro-1H-cyclopropa[3,4]cyclopenta[1,2-c]pyrazol-1-yl)acetamide]
EC50 (recombinant NL4-3 virus): 0.796 nM | CC50 at 4 days [1]: > 500 nM

Cn1nc(NS(C)(=O)=O)c2c(Cl)ccc(-n3c([C@H](Cc4cc(F)cc(F)c4)NC(=O)Cn4nc(C(F)F)c5c4C(F)(F)[C@@H]4C[C@H]54)nc4cc(N5CC6(COC6)C5)ccc4c3=O)c21 (atropisomer, axis not shown; (P)) [Example 21, N—((S)-1-((3P)-3-(4-chloro-1-methyl-3-(methylsulfonamido)-1H-indazol-7-yl)-4-oxo-7-(2-oxa-6-azaspiro[3.3]heptan-6-yl)-3,4-dihydroquinazolin-2-yl)-2-(3,5-difluorophenyl)ethyl)-2-((3bS,4aR)-3-(difluoromethyl)-5,5-difluoro-3b,4,4a,5-tetrahydro-1H-cyclopropa[3,4]cyclopenta[1,2-c]pyrazol-1-yl)acetamide]
EC50 (recombinant NL4-3 virus): 0.064 nM | CC50 at 4 days [1]: > 500 nM

C[C@@H]1CN(c2ccc3c(=O)n(-c4ccc(Cl)c5c(NS(C)(=O)=O)nn(CC(F)F)c45)c([C@H](Cc4cc(F)cc(F)c4)NC(=O)Cn4nc(C5CC5)cc4C(F)F)nc3c2)C[C@H](C)O1 (atropisomer, axis not shown; (P)) [Example 47, N—((S)-1-((3P)-3-(4-chloro-1-(2,2-difluoroethyl)-3-(methylsulfonamido)-1H-indazol-7-yl)-7-((2S,6R)-2,6-dimethylmorpholino)-4-oxo-3,4-dihydroquinazolin-2-yl)-2-(3,5-difluorophenyl)ethyl)-2-(3-cyclopropyl-5-(difluoromethyl)-1H-pyrazol-1-yl)acetamide]
EC50 (recombinant NL4-3 virus): 0.96 nM | CC50 at 4 days [1]: > 500 nM

Cn1nc(NS(C)(=O)=O)c2c(Cl)ccc(-n3c([C@H](Cc4cc(F)cc(F)c4)NC(=O)Cn4nc(C(F)F)c5c4C(F)(F)[C@@H]4C[C@H]54)nc4cc(N5CC(C)(C)OC(C)(C)C5)ccc4c3=O)c21 (atropisomer, axis not shown; (P)) [Example 57, N—((S)-1-((3P)-3-(4-chloro-1-methyl-3-(methylsulfonamido)-1H-indazol-7-yl)-4-oxo-7-(2,2,6,6-tetramethylmorpholino)-3,4-dihydroquinazolin-2-yl)-2-(3,5-difluorophenyl)ethyl)-2-((3bS,4aR)-3-(difluoromethyl)-5,5-difluoro-3b,4,4a,5-tetrahydro-1H-cyclopropa[3,4]cyclopenta[1,2-c]pyrazol-1-yl)acetamide]
EC50 (recombinant NL4-3 virus): 0.077 nM | CC50 at 4 days [1]: > 500 nM

C[C@@H]1CN(c2ccc3c(=O)n(-c4ccc(Cl)c5c(NS(C)(=O)=O)nn(CC(F)F)c45)c([C@H](Cc4cc(F)cc(F)c4)NC(=O)Cn4ccc(C5CC5)n4)nc3c2)C[C@H](C)O1 (atropisomer, axis not shown; (P)) [Example 48, N—((S)-1-((3P)-3-(4-chloro-1-(2,2-difluoroethyl)-3-(methylsulfonamido)-1H-indazol-7-yl)-7-((2S,6R)-2,6-dimethylmorpholino)-4-oxo-3,4-dihydroquinazolin-2-yl)-2-(3,5-difluorophenyl)ethyl)-2-(3-cyclopropyl-1H-pyrazol-1-yl)acetamide]
EC50 (recombinant NL4-3 virus): 0.44 nM | CC50 at 4 days [1]: > 500 nM

O=C(Cn1nc(C(F)F)cc1C1CC1)N[C@@H](Cc1cc(F)cc(F)c1)c1nc2cc(N3CCCCC3)ccc2c(=O)n1-c1ccc(Cl)c2c(NS(=O)(=O)C3CC3)nn(CC(F)F)c12 (atropisomer, axis not shown; (P)) [Example 39, (S)—N-(1-((3P)-3-(4-chloro-3-(cyclopropanesulfonamido)-1-(2,2-difluoroethyl)-1H-indazol-7-yl)-4-oxo-7-(piperidin-1-yl)-3,4-dihydroquinazolin-2-yl)-2-(3,5-difluorophenyl)ethyl)-2-(5-cyclopropyl-3-(difluoromethyl)-1H-pyrazol-1-yl)acetamide]
EC50 (recombinant NL4-3 virus): 3.72 nM | CC50 at 4 days [1]: > 1000 nM

Cn1nc(NS(C)(=O)=O)c2c(Cl)ccc(-n3c([C@H](Cc4cc(F)cc(F)c4)NC(=O)Cn4nc(C(F)F)c5c4C(F)(F)[C@@H]4C[C@H]54)nc4cc(NCc5ccccc5)ccc4c3=O)c21 (atropisomer, axis not shown; (P)) [Example 20, N—((S)-1-(7-(benzylamino)-(3P)-3-(4-chloro-1-methyl-3-(methylsulfonamido)-1H-indazol-7-yl)-4-oxo-3,4-dihydroquinazolin-2-yl)-2-(3,5-difluorophenyl)ethyl)-2-((3bS,4aR)-3-(difluoromethyl)-5,5-difluoro-3b,4,4a,5-tetrahydro-1H-cyclopropa[3,4]cyclopenta[1,2-c]pyrazol-1-yl)acetamide]
EC50 (recombinant NL4-3 virus): 0.38 nM | CC50 at 4 days [1]: > 1000 nM

C[C@@H]1CN(c2ccc3c(=O)n(-c4ccc(Cl)c5c(NS(C)(=O)=O)nn(CC(F)(F)F)c45)c([C@H](Cc4cc(F)cc(F)c4)NC(=O)Cn4nc(C(F)F)cc4C4CC4)nc3c2)C[C@H](C)O1 (atropisomer, axis not shown; (P)) [Example 59, N—((S)-1-((3P)-3-(4-chloro-3-(methylsulfonamido)-1-(2,2,2-trifluoroethyl)-1H-indazol-7-yl)-7-((2S,6R)-2,6-dimethylmorpholino)-4-oxo-3,4-dihydroquinazolin-2-yl)-2-(3,5-difluorophenyl)ethyl)-2-(5-cyclopropyl-3-(difluoromethyl)-1H-pyrazol-1-yl)acetamide]
EC50 (recombinant NL4-3 virus): 0.42 nM | CC50 at 4 days [1]: > 500 nM

Cn1nc(NS(C)(=O)=O)c2c(Cl)ccc(-n3c([C@H](Cc4cc(F)cc(F)c4)NC(=O)Cn4nc(C(F)F)c5c4C(F)(F)[C@@H]4C[C@H]54)nc4cc(N5CCC[C@H]5CO)ccc4c3=O)c21 (atropisomer, axis not shown; (P)) [Example 35, N—((S)-1-((3P)-3-(4-chloro-1-methyl-3-(methylsulfonamido)-1H-indazol-7-yl)-7-((S)-2-(hydroxymethyl)pyrrolidin-1-yl)-4-oxo-3,4-dihydroquinazolin-2-yl)-2-(3,5-difluorophenyl)ethyl)-2-((3bS,4aR)-3-(difluoromethyl)-5,5-difluoro-3b,4,4a,5-tetrahydro-1H-cyclopropa[3,4]cyclopenta[1,2-c]pyrazol-1-yl)acetamide]
EC50 (recombinant NL4-3 virus): 0.272 nM | CC50 at 4 days [1]: > 10000 nM

Source: patent US20210395262A1, “INHIBITORS OF HUMAN IMMUNODEFICIENCY VIRUS REPLICATION” (ViiV HEALTHCARE UK (NO.5) LIMITED, priority 2018, published 2021)
